The values below come from patent US20110166078A1, “OLIGOSACCHARIDE COMPOUNDS FOR USE IN MOBILISING STEM CELLS” (ENDOTIS PHARMA, priority 2008, published 2011).

For one assay, the target named is PDGF-β (Homo sapiens, UniProt P01127). The experiment in a line: PDGF-β/heparin competition assay by SPR (Biacore). Conditions: 10 nM PDGF-β, biotinylated heparin, Sensorchip C1. Format: binding. How it is done: Heparin or low molecular weight heparin (6 kDa) from SIGMA were biotinylated at the reducing end and immobilized on a Biacore sensorchip. Different concentrations of the compounds of the present invention were co-incubated at a fixed concentration of targets: FGF-2, PDGF-β, VEGF-A or SDF-1α for 30 minutes. The mixture was then injected onto the streptavidin control (control reference) and HP surfaces. Only free growth factor (GF) or chemokine, i.e. the target molecules not bound to compounds of the present invention, were trapped on the heparin surface. From the binding of free targets on heparin, the percentages of inhibition were calculated and then reported in function of compound concentrations. The plot was fitted with a four-parameter model and IC50 was calculated. The 0% inhibition value was obtained for the injection of the studied target in running-buffer, and the 100% inhibition value was obtained for the injection of the studied target co-incubated with 10 μM of low molecular weight heparin 6 kDa. A PDGF-β/heparin competition assay using the Biacore technology was performed using the following conditions: 10 nM PDGF-β, biotinylated heparin, Reference Streptavidin, Sensorchip C1, HBS-P, Regeneration NaCl 2M. IC50 values of compounds of the present invention were determined using the Biacore technology for the growth factor and chemokine/heparin competition assays that contained the following proteins: VEGF-A, SDF-1α, FGF-2 and PDGF-β.
(SPR reads the build-up and loss of mass on a sensor chip optically.)

Assay [1] has as its system PDGF-β-induced NHDF proliferation. The experiment in a line: PDGF-β-induced NHDF proliferation assay. Format: cell-based, human. Conditions: PDGF-β 10 ng/ml; FIGS. 8-12. The procedure:
(§1) The activities of the compounds of the present invention were tested using a proliferation assay, such as the one described by N. Ali et al., J Pharmacol Sci, 2005, 98, 130-141. A defined number of cells is seeded in each well of a culture plate. In order to stimulate cell proliferation, a growth factor is added in some wells, while others remain unstimulated (basal proliferation conditions). To monitor the effects of substances of interest (oligosaccharides compounds according to the present invention) on basal and growth factor-induced cell proliferation, substances of interest are added at different concentrations (i.e. 0.1, 0.3, 1, 3, 10 or 30 μM) in presence or absence of the growth factor, respectively. After an incubation period of 24 hours, the total number of cells is estimated in all samples (generally through an indirect method, such as incorporation of radioactivity into the newly synthesised DNA or colorimetric assays based on cellular enzyme activities or metabolite production). The total number of cells for the control sample in which no substance of interest nor growth factor have been added is set to 1. The total number of cells in all the other samples is compared to this value in order to obtain the relative proliferation index.
Typically, cells are seeded in 48 or 96-well plates. After 2 h (i.e. the time required for cells to adhere to the support) the normal culture media is replaced by a minimal essential culture media in which cells are grown for 24 h (starvation period). This step is used to reduce cell growth (cell metabolism is slowed down in order to better visualise the growth factor stimulation effect) before adding an angiogenic protein, such as a growth factor i.e. FGF-2 or PDGF-β. No growth factor is added in basal proliferation conditions (independently of the presence or absence of the oligosaccharide of the present invention). To evaluate the inhibition of the oligosaccharide compounds according to the present invention on cell proliferation, the angiogenic protein (growth factor) is added at a fixed concentration (from 5 ng/ml to 10 ng/ml) with increasing amounts of oligosaccharide compounds (0.1, 0.3, 1, 3, 10 or 30 μM), which allows the IC50 value to be estimated (i.e. the oligosaccharide concentration at which the stimulatory effect of the growth factor is inhibited by 50%).
(§2) Following addition of the angiogenic protein (growth factor) over a 24 h stimulation period, a commercial reagent containing a substrate for a cellular enzyme is added and incubated for couple of hours. The degradation of the substrate by the enzyme leads to the production of a coloured product which is titrated by absorbance measurement. […]

Assay [2] has as its system FGF-2-induced NHDF (Normal Human Dermal Fibroblast) cell proliferation. The experiment in a line: FGF-2-induced NHDF proliferation assay. The assay is classed as cell-based. To be noted: compound 0.1 to 30 μM. The procedure: as §1
Typically, cells are seeded in 48 or 96-well plates. After 2 h (i.e. the time required for cells to adhere to the support) the normal culture media is replaced by a minimal essential culture media in which cells are grown for 24 h (starvation period). This step is used to reduce cell growth (cell metabolism is slowed down in order to better visualise the growth factor stimulation effect) before adding an angiogenic protein, such as a growth factor i.e. FGF-2 or PDGF-β. No growth factor is added in basal proliferation conditions (independently of the presence or absence of the oligosaccharide of the present invention). […]
as §2
In the following experiments the effects of compounds 240 and 241 (concentrations from 0.1 to 30 μM) were evaluated on FGF-2-induced NHDF (Normal Human Dermal Fibroblast) cell proliferation. […]

Chain of PDGF-β (P01127 82-190 limits assumed): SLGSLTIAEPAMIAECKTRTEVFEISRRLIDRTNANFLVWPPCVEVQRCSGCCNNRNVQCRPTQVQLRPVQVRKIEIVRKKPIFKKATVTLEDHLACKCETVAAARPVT

For the molecule `C#CCCCOC1OC(COS(=O)(=O)[O-])C(OC2OC(C(=O)[O-])C(OC3OC(COS(=O)(=O)[O-])C(OC4OC(C(=O)[O-])C(OC5OC(COS(=O)(=O)[O-])C(OC6OC(C(=O)[O-])C(OCc7ccccc7)C(OCc7ccccc7)C6OS(=O)(=O)[O-])C(OCc6ccccc6)C5NS(=O)(=O)[O-])C(OCc5ccccc5)C4OS(=O)(=O)[O-])C(OCc4ccccc4)C3NS(=O)(=O)[O-])C(OCc3ccccc3)C2OS(=O)(=O)[O-])C(OCc2ccccc2)C1NS(=O)(=O)[O-].[Na+].[Na+].[Na+].[Na+].[Na+].[Na+].[Na+].[Na+].[Na+].[Na+].[Na+].[Na+]` (stereo not drawn) [Compound 239], the IC50 on PDGF-β came to 85 nM. Further, in assay [1], the “inhibition of PDGF-β-induced NHDF proliferation” value is reported as “inhibit PDGF-β proliferation (starting in the micromolar range)”.

Regarding `C#CCCCOC1OC(COS(=O)(=O)[O-])C(OC2OC(C(=O)[O-])C(OC3OC(COS(=O)(=O)[O-])C(OC4OC(C(=O)[O-])C(OC5OC(COS(=O)(=O)[O-])C(OC6OC(C(=O)[O-])C(OC7OC(COS(=O)(=O)[O-])C(OC8OC(C(=O)[O-])C(OCc9ccccc9)C(OCc9ccccc9)C8OS(=O)(=O)[O-])C(OCc8ccccc8)C7NS(=O)(=O)[O-])C(OCc7ccccc7)C6OS(=O)(=O)[O-])C(OCc6ccccc6)C5NS(=O)(=O)[O-])C(OCc5ccccc5)C4OS(=O)(=O)[O-])C(OCc4ccccc4)C3NS(=O)(=O)[O-])C(OCc3ccccc3)C2OS(=O)(=O)[O-])C(OCc2ccccc2)C1NS(=O)(=O)[O-].[Na+].[Na+].[Na+].[Na+].[Na+].[Na+].[Na+].[Na+].[Na+].[Na+].[Na+].[Na+].[Na+].[Na+].[Na+].[Na+]` (stereo not drawn) [Compound 240], at PDGF-β, the IC50 came out at 10.9 nM. Besides, the “inhibition of FGF-2-induced fibroblast proliferation” value in assay [2] (FGF-2 5 ng/ml, FIGS. 6-7) is “inhibit FGF-2-induced fibroblast proliferation (starting in the micromolar range)”. In assay [2] (control conditions, no growth factor), the “basal NHDF proliferation” value is recorded as “did not seem to be affected”. For the same molecule, the “inhibition of PDGF-β-induced NHDF proliferation” value in assay [1] was “inhibit PDGF-β proliferation (starting in the micromolar range)”.

For orientation: IC50 means the point on the concentration scale where inhibition reaches its midpoint.
